Assay results as given in patent US20240325530A1, “COMBINATION THERAPIES” (Versanis Bio, Inc., priority 2021, published 2024).
Read-outs that look alike come from different tables or passages of the source.

Columns and labels:
[1] = Pharmacokinetics of semaglutide and CDD866 alone and combined in DIO mice; assay type: in vivo; details: analyte semaglutide, mean plasma; for MRT inf / MRT last: mouse; for MRT inf: read-out: MRT0-inf; for MRT last: read-out: MRT0-last
Description: Dedicated cohorts of diet induced obesity (DIO) mice were used. Blood sampling was performed at 5 time points, with 3 mice per time point.

[2] = Obese mouse model (60% fat diet), initial study: food intake, body composition by MRI, physical activity; design: species or system C57B1/6J mice; details: in vivo
Description: C57B1/6J mice at 5-6 weeks of age were fed a 60% fat diet for 14 weeks and reached an average body weight of 49 grams at the start of dosing, as an obese mouse model. Employing a modified 3×3 factorial design, groups of mice (n=8 per group) received a murinized version of bimagrumab, CDD866, at 0.3 mg/kg or 20 mg/kg intraperitoneally (i.p.) weekly and/or semaglutide at 5 μg/kg or 40 μg/kg subcutaneously (s.c.) daily. The high fat diet was continued through the treatment period, and food intake and body weight were monitored twice weekly. Clinical observations, body composition by MRI, and physical activity, were assessed once weekly.

[3] = DIO mice: CDD866 combined with semaglutide, liraglutide or tirzepatide (body weight, fat, lean mass, food intake, open field); assay type: in vivo; details: Day 22, DIO mice; CDD866 20 mg/kg, semaglutide 40 μg/kg, tirzepatide 45/22.5 μg/kg (Table 4)
Description: DIO mice received a murinized version of bimagrumab, CDD866, at 20 mg/kg intraperitoneally (i.p.) weekly in combination with semaglutide (40 μg/kg once daily), liraglutide (40 μg/kg twice daily), or tirzepatide at 45 μg/kg once daily and after day 11, 22.5 μg/kg once daily) subcutaneously (s.c.). The GLP-1 agonists in this study were not dose escalated.

[4] = overweight and obese patients; cited from earlier work
[5] = group CDD866-20 mpk + Semaglutide-40 ug/kg

**Q.** Which results are given for `CC[C@H](C)[C@H](NC(=O)[C@H](Cc1ccccc1)NC(=O)[C@H](CCC(=O)O)NC(=O)[C@H](CCCCNC(=O)COCCOCCNC(=O)COCCOCCNC(=O)CC[C@H](NC(=O)CCCCCCCCCCCCCCCCC(=O)O)C(=O)O)NC(=O)[C@H](C)NC(=O)[C@H](C)NC(=O)[C@H](CCC(N)=O)NC(=O)CNC(=O)[C@H](CCC(=O)O)NC(=O)[C@H](CC(C)C)NC(=O)[C@H](Cc1ccc(O)cc1)NC(=O)[C@H](CO)NC(=O)[C@H](CO)NC(=O)[C@@H](NC(=O)[C@H](CC(=O)O)NC(=O)[C@H](CO)NC(=O)[C@@H](NC(=O)[C@H](Cc1ccccc1)NC(=O)[C@@H](NC(=O)CNC(=O)[C@H](CCC(=O)O)NC(=O)C(C)(C)NC(=O)[C@@H](N)Cc1cnc[nH]1)[C@@H](C)O)[C@@H](C)O)C(C)C)C(=O)N[C@@H](C)C(=O)N[C@@H](Cc1c[nH]c2ccccc12)C(=O)N[C@@H](CC(C)C)C(=O)N[C@H](C(=O)N[C@@H](CCCNC(=N)N)C(=O)NCC(=O)N[C@@H](CCCNC(=N)N)C(=O)NCC(=O)O)C(C)C` [Semaglutide, semaglutide]?
**A.** Tlast [1, 5]: 24.0 h; Tlast ([1]; group Semaglutide-5 ug/kg): 8.00 h; Tlast ([1]; group Semaglutide-40 ug/kg): 24.0 h; MRT inf [1, 5]: 16.6 h; MRT last [1, 5]: 9.76 h; MRT last ([1]; group Semaglutide-5 ug/kg): 4.38 h; MRT inf ([1]; group Semaglutide-40 ug/kg): 15.2 h; MRT last ([1]; group Semaglutide-40 ug/kg): 10 h; clinical observations [2]: no clinical observations of concern

**Q.** For tirzepatide, which “Body weight” value [3] is on record?
**A.** 40.2 ± 1.3 g

**Q.** What about the “Fat” value [3] of the same molecule?
**A.** 12.7 ± 1.4 g

**Q.** And the “Lean mass” value [3]?
**A.** 25.4 ± 0.4 g

B1: Bimagrumab: ActRII receptor antibody, sequences SEQ ID NO: 1-10 (antibody, chains of the INN, looked up, V domains shown)
VH: QVQLVQSGAEVKKPGASVKVSCKASGYTFTSSYINWVRQAPGQGLEWMGTINPVSGSTSYAQKFQGRVTMTRDTSISTAYMELSRLRSDDTAVYYCARGGWFDYWGQGTLVTVSS
VL: QSALTQPASVSGSPGQSITISCTGTSSDVGSYNYVNWYQQHPGKAPKLMIYGVSKRPSGVSNRFSGSKSGNTASLTISGLQAEDEADYYCGTFAGGSYYGVFGGGTKLTVL
**Q.** For B1, which “increase in muscle mass” value [4] is on record?
**A.** 4-8%
